The values below come from PMC6471485, “Selective Inhibitors of a Human Prolyl Hydroxylase (OGFOD1) Involved in Ribosomal Decoding” (Chemistry (Weinheim an Der Bergstrasse, Germany), 2019).

One experiment addresses FIH (Homo sapiens, UniProt Q9NWT6). Description: FIH assay, MALDI-TOF MS detection of hydroxylation. It is filed as biochemical.
Experiment [1] concerns the target T1, OGFOD1 (Homo sapiens, UniProt Q8N543).
T1 sequence (Q8N543 1-542): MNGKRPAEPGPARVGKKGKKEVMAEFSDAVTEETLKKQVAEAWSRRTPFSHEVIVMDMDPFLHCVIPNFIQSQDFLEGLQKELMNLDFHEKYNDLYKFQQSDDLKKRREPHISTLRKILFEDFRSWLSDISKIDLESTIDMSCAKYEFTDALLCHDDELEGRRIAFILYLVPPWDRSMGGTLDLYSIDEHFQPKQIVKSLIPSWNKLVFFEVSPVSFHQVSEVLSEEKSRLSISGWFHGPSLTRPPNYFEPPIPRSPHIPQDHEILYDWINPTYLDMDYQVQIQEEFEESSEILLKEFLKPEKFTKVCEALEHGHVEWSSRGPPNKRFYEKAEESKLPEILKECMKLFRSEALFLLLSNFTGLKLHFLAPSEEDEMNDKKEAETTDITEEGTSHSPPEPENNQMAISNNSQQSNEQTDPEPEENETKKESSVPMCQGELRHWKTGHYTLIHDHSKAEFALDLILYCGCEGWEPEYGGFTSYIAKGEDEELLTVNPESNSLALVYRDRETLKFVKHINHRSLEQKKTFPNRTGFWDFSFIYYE
Description: wLOGSY NMR binding experiment with OGFOD1. The following applies: 120 µM inhibitor, 15 µM OGFOD1. The protocol: total echo time of 40 ms, a relaxation delay of 2 s, with 256 scans. Water suppression was achieved by presaturation. Samples contained 30 µM apo-PHD2181-426 or OGFOD1, supplemented with 60 µM Zn(II), 30 µM of inhibitor, all in 50 mM Tris-d11, pH 7.5, 10 % D2O, […]
wLOGSY Binding Experiments: For water-ligand observed gradient spectroscopy (wLOGSY) analyses, typical experimental parameters were the following: mixing time, 1 s; relaxation delay, 2 s; number of transients, 512. Solvent excitation was achieved using a 16-ms 180° selective rectangular shape pulse with 1,000 points (Squa100.1000) set at the H2O frequency.
Water suppression was achieved by a 2-ms sinc pulse (Sinc1.1000) at the H2O frequency.
Samples contained 5-fold molar excess inhibitor:protein as detailed in the figure legends; all analyses were in 50 mM Tris-d11, pH 7.5, 10 % D2O, 90 % H2O supplemented with 60 µM […]
Competition Experiments by 2OG Displacement: 2OG displacement assays[12] were performed using CPMG-edited 1H spectra. The PROJECT-CPMG sequence was applied as described by Aguilar et al.[11] The standard experimental parameters used were a total echo time of 40 ms, a relaxation delay of 2 s, with 160 scans. Water suppression was achieved by presaturation. The 2OG methylene resonance at 2.35 ppm was monitored. The percentage 2OG displacement was […]
% 2OG displacement = !2OG%!2OG(0) ×100 […]

The target of experiment [2] is T1, OGFOD1. Put plainly: CPMG-edited 1H NMR binding experiment with OGFOD1. The conditions noted are these: 30 µM inhibitor, 30 µM OGFOD1. The protocol: RapidFire integrator software (Agilent). Percent conversion was calculated in Excel, and IC50 curves were generated using Prism v. 7.0 (GraphPad).
Differential Scanning Fluorimetry (DSF) Assays
Assays consisted of enzyme (2 µM), inhibitor (200 µM), MnCl2 (50 µM), and SYPRO Orange (1:5000 dilution), all prepared in 50 mM HEPES, pH 7.5. Assays were conducted using white 96-well RT-PCR plates. An Opticon thermal cycler (MJ Research Inc) was used to control temperature and measure fluorescence. Data were processed using the OpticonMONITOR Analysis Software, while curve fitting was performed in Prism […]
Stable small-molecule inhibitor conformations were investigated using the MM2 force field method in ChemBio3D 11.0 (PerkinElmer Informatics). Protein structures were aligned using PyMOL version 2.0 (Schrödinger, LLC). The small-molecule inhibitors were then modelled into the protein active sites, overlaying them with the already contained inhibitor, if applicable (e.g., FG2216 with PHD2, PDB 3HQU; N-oxalylglycine with OGFOD1, PDB 4NHX). […]
CPMG Binding Experiments: Binding of the inhibitors to the proteins was monitored using Carr-Purcell-Meiboom-Gill (CPMG)-edited 1H spectra. […]
Competition Experiments by 2OG Displacement: 2OG displacement assays[12] were performed using CPMG-edited 1H spectra. […] The 2OG methylene resonance at 2.35 ppm was monitored. […]

“Also recorded” adds a separate entry of the source.

Sequence of FIH (Q9NWT6 whole entry): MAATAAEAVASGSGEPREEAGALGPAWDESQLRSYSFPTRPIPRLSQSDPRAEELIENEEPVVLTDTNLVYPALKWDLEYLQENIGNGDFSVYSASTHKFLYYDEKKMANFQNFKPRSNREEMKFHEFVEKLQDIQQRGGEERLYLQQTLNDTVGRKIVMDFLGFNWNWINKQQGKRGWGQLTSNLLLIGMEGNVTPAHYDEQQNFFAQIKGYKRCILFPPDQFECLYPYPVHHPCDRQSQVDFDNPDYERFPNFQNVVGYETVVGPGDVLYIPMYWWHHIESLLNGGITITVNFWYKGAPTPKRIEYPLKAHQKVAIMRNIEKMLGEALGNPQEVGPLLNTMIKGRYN

At FIH, `Cn1c(O)c(C(=O)CCc2cccs2)c(=O)n(C)c1=O` [compound 42] displayed an IC50 above 100 µM. On OGFOD1 [1], the “binding to OGFOD1 by wLOGSY NMR, in words” value is reported as “indicates a binding interaction”. Also, the “binding to OGFOD1 by 1H CPMG NMR, in words” value at OGFOD1 [2] (listed as CCT4) is reported as “strong binding; also recorded: strongly bind to OGFOD1”.

At FIH, `Cn1c(O)c(C(=O)CCc2ccccc2)c(=O)n(C)c1=O` [compound 26] showed an IC50 above 100 µM. Moreover, the “binding to OGFOD1 by wLOGSY NMR, in words” value on OGFOD1 [1] is given as “indicates a binding interaction”. Also, the “binding to OGFOD1 by 1H CPMG NMR, in words” value at OGFOD1 [2] (listed as CCT3) is reported as “strong binding; also recorded: strongly bind to OGFOD1”.
